The results in this text go back to the supplement of paper PMC10702517.

± gives the standard deviation.

A short description of this data set: chemical recovery from spiked human plasma; higher = better extraction. The note with it: pooled human plasma.
The mark [1] stands for this setting: extraction method: PES+SPE (3 d PDMS equilibration then HLB SPE).
[2] abbreviates: extraction method: SPE only (HLB 96-well).
The mark [3] stands for this setting: extraction method: SPE only (HLB 96-well), PES comparison experiment.
Where [4] appears, read: extraction method: solvent precipitation (ACN + hexane).

As for `Cn1c(N)nc2ncc(-c3ccccc3)cc21` [2-Amino-1-methyl-6-phenylimidazo[4,5-b]pyridine (PhIP)], the chemical recovery by setting is: under setting [1], 38.9 ± 2.9%; under setting [2], 39.3 ± 2.8%; under setting [3], 47 ± 5.8%; under setting [4], 72.4 ± 2.8%.

As to `Cn1c(N)nc2ncc(-c3ccccc3)cc21` [2-Amino-1-methyl-6-phenylimidazo[4,5-b]pyridine-(PhIP)], the chemical recovery was found to be 49 ± 2.1% under setting [1], 45.2 ± 2.2% under setting [2] and 70.9 ± 3.6% under setting [4].

With `Cc1cnc2ccc3c(nc(N)n3C)c2n1` [2-Amino-3,8-dimethylimidazo-[4,5-f]quinoxaline (MeIQx)], the chemical recovery runs as follows: under setting [1], 48.7 ± 6%; under setting [2], 49.1 ± 2.6%; under setting [4], 72.4 ± 3.3%.

`Cn1c(N)nc2c3cccnc3ccc21` [2-Amino-3-methyl-imidazo[4,5-f]quinoline (IQ)]: the chemical recovery under setting [2] was found to be 11.1 ± 1.8%.

`Cn1c(N)nc2c3cccnc3ccc21` [2-Amino-3-methyl-imidazo[4,5-f]quinoline-(IQ)]: the chemical recovery is 27 ± 5.9% under setting [1], 13.8 ± 2.6% under setting [2] and 73.4 ± 2.7% under setting [4].

For the molecule `Cc1cc(C)nc(N)n1` [2-Amino-4,6-dimethylpyrimidine], the chemical recovery under setting [2] was 2.25 ± 2.4%.

Consider `Nc1ccc2c(n1)[nH]c1ccccc12` [2-Amino-9H-pyrido[2,3-b]indole-(AalphaC)], for which the chemical recovery under setting [1] was 17.4 ± 2.8%, the chemical recovery under setting [2] was 32.5 ± 2.4% and the chemical recovery under setting [4] came out at 62.4 ± 5.3%.

On to `Nc1nc2ccccc2[nH]1` [2-Aminobenzimidazole], for which the chemical recovery was 18.8 ± 4.5% under setting [2] and 68.3 ± 4.5% under setting [4].

For the molecule `CC(Cl)CN(C)C` (stereo not given) [2-Chloropropyldimethylamine], the chemical recovery was 0.712 ± 0.094% under setting [1] and 1.1 ± 0.73% under setting [2].

For `CCCCC(CC)COP(=O)(Oc1ccccc1)Oc1ccccc1` (stereo not given) [2-Ethylhexyldiphenylphosphate], under setting [2], the chemical recovery amounted to 38.9 ± 8.9%.

Consider `NNc1ccccn1` [2-Hydrazinopyridine], for which the chemical recovery came out at 0.622 ± 0.11% under setting [1] and 9.35 ± 5% under setting [2].

Regarding `CCNc1nc(NC(C)C)[nH]c(=O)n1` [2-Hydroxyatrazine], the chemical recovery runs as follows: under setting [1], 36.1 ± 4.4%; under setting [2], 29.1 ± 3.5%; under setting [3], 44.3 ± 8.2%; under setting [4], 76.5 ± 3.2%.

With `Oc1ccc2c(c1)[nH]c1ccccc12` [2-Hydroxycarbazole], the chemical recovery came out at 52.1 ± 4.4% under setting [1] and 40.6 ± 5% under setting [2].

As for `Cc1cc(=O)nc(C(C)C)[nH]1` [2-Isopropyl-6-methyl-pyrimidin-4-ol], the chemical recovery under setting [1] was 45.2 ± 5.9%, the chemical recovery under setting [2] is 34.6 ± 4%, the chemical recovery under setting [3] was 44.3 ± 8.5% and the chemical recovery under setting [4] came out at 77.2 ± 3.2%.

As for `Cc1ccc2cc3ccccc3cc2c1` [2-Methylanthracene], the chemical recovery stood at 51.5 ± 4.5% under setting [1] and 3.56 ± 0.86% under setting [2].

Regarding `Cc1ccc2ccccc2c1` [2-Methylnaphthalene], under setting [2], the chemical recovery was 2.91 ± 1.5%.

As for `c1ccc2sc(SN3CCOCC3)nc2c1` [2-Morpholinothiobenzothiazole], the chemical recovery under setting [4] is 139 ± 8.9%.

For `Nc1ccccc1[N+](=O)[O-]` [2-Nitroaniline], under setting [2], the chemical recovery was determined as 25.1 ± 5.2%.

With `O=C1Cc2ccccc2N1` [2-Oxindole], under setting [4], the chemical recovery stood at 39.1 ± 5.5%.

Regarding `N[C@@H](Cc1cc(I)c(Oc2ccc(O)c(I)c2)c(I)c1)C(=O)O` [3,3',5-Triiodo-L-thyronine], under setting [4], the chemical recovery was 56.3 ± 2.7%.

For `Cc1cc(-c2ccc(N)c(C)c2)ccc1N` [3,3'-Dimethylbenzidine], the chemical recovery runs as follows: under setting [2], 37.1 ± 6.7%; under setting [3], 20.3 ± 2.9%; under setting [4], 61.7 ± 6.9%.

Take `Oc1cc(Cl)c(Cl)c(Cl)c1` [3,4,5-Trichlorophenol]: the chemical recovery is, setting by setting: under setting [1], 58.9 ± 7.8%; under setting [2], 45 ± 3.1%; under setting [4], 70.1 ± 3.9%.

With `Oc1ccc(Cl)cc1O` [3,4-Dihydroxy-chlorobenzene], the chemical recovery under setting [1] was found to be 5.54 ± 1.6% and the chemical recovery under setting [2] was 39.4 ± 4.7%.

Take `CC(=O)c1cc(C(C)(C)C)c(O)c(C(C)(C)C)c1` [3,5-Di-tert-butyl-4'-hydroxyacetophenone]: the chemical recovery under setting [2] worked out at 20.1 ± 4.9% and the chemical recovery under setting [4] was found to be 42.1 ± 2.7%.

Consider `Cc1ccc2ccc3ccc(C)cc3c2c1` [3,6-dimethylphenanthrene], for which the chemical recovery runs as follows: under setting [1], 36.5 ± 13%; under setting [2], 2.62 ± 0.48%; under setting [4], 71.5 ± 5%.

Turning to `Cc1ccc(N)cc1Cl` [3-Chloro-4-methylaniline], the chemical recovery runs as follows: under setting [1], 56.7 ± 3.6%; under setting [2], 45.3 ± 2.8%; under setting [4], 76.7 ± 4.1%.

With `CN(C)C(=O)NC1CCCCC1` [3-Cyclohexyl-1,1-dimethylurea], the chemical recovery by setting is: under setting [1], 28.9 ± 9.2%; under setting [2], 35.4 ± 2.2%; under setting [4], 61.2 ± 1.1%.

Consider `Oc1cc(-c2ccc(Cl)cc2)ccc1Cl` [3-Hydroxy-4,4'-dichlorobiphenyl], for which the chemical recovery by setting is: under setting [2], 35.7 ± 2.3%; under setting [4], 42.3 ± 3.4%.

On to `Cc1ccc2cc3c(ccc4ccccc43)c3c2c1CC3` [3-Methylcholanthrene], for which the chemical recovery came out at 0.839 ± 0.34% under setting [2] and 58.3 ± 3.3% under setting [4].

With `O=C(O)CCC(F)(F)C(F)(F)C(F)(F)F` [3.3-FTCA], the chemical recovery was 2.63 ± 2.7% under setting [1] and 0.288 ± 0.082% under setting [2].

The molecule `COc1cc(NC(=O)CC(C)=O)c(OC)cc1Cl` [4'-Chloro-2',5'-dimethoxyacetoacetanilide] showed a chemical recovery under setting [1] of 21.7 ± 5% and a chemical recovery under setting [2] of 43.2 ± 5.5%.

With `CC(C)(c1ccccc1)c1ccc(Nc2ccc(C(C)(C)c3ccccc3)cc2)cc1` [4,4'-Bis(alpha,alpha-dimethylbenzyl)diphenylamine], under setting [2], the chemical recovery was found to be 2.12 ± 1.1%.

Regarding `ClC(Cl)=C(c1ccc(Cl)cc1)c1ccc(Cl)cc1` [4,4'-DDE], the chemical recovery was 49.3 ± 15% under setting [1], 0.779 ± 0.23% under setting [2] and 41.1 ± 2.4% under setting [4].

For the molecule `ClC=C(c1ccc(Cl)cc1)c1ccc(Cl)cc1` [4,4'-DDMU], the chemical recovery runs as follows: under setting [1], 54.3 ± 19%; under setting [2], 1.65 ± 0.55%; under setting [4], 30.1 ± 2.7%.

`Clc1ccc(C(c2ccc(Cl)cc2)C(Cl)(Cl)Cl)cc1` [4,4'-DDT]: the chemical recovery is 81.7 ± 22% under setting [1], 3.49 ± 1.1% under setting [2] and 56.7 ± 8.1% under setting [4].

For `Nc1ccc(Cc2ccc(N)cc2)cc1` [4,4'-Methylenedianiline], the chemical recovery under setting [2] came out at 9.55 ± 0.81% and the chemical recovery under setting [4] turned out to be 31.9 ± 11%.

With `Nc1ccc(Oc2ccc(N)cc2)cc1` [4,4'-Oxydianiline], the chemical recovery came out at 0.849 ± 0.6% under setting [1], 8.07 ± 0.83% under setting [2] and 26.3 ± 9% under setting [4].

As to `Clc1ccc(C(c2ccc(Cl)cc2)C(Cl)(Cl)Cl)cc1` [4,4-DDT], the chemical recovery under setting [3] came to 52.8 ± 20%.

Consider `CC(=O)CCc1ccc(O)cc1` [4-(4-Hydroxyphenyl)butan-2-one], for which the chemical recovery was 64.8 ± 5.4% under setting [1], 60 ± 5.2% under setting [2] and 64.5 ± 4% under setting [4].

`CN(C)c1ccncc1` [4-(Dimethylamino)pyridine]: the chemical recovery runs as follows: under setting [1], 0.689 ± 0.15%; under setting [2], 2.53 ± 2.1%; under setting [4], 60.5 ± 4%.

For the molecule `CC(=O)N1CCOCC1` [4-Acetylmorpholine], the chemical recovery under setting [2] is 3.35 ± 3.7%.

With `Cc1cc(N)c2ccccc2n1` [4-Amino-2-methylquinoline], the chemical recovery reads like this: under setting [1], 27.3 ± 3.6%; under setting [2], 32.7 ± 2.9%; under setting [4], 73.8 ± 2.2%.

On to `CN(C)S(=O)(=O)c1ccc(N)cc1` [4-Amino-N,N-dimethylbenzenesulfonamide], for which the chemical recovery under setting [1] stood at 69.6 ± 6.2% and the chemical recovery under setting [2] came out at 63.7 ± 4.4%.

`CN(C)S(=O)(=O)c1ccc(N)cc1` [4-Amino-NN-dimethylbenzenesulfonamide]: the chemical recovery amounted to 51.6 ± 4% under setting [1], 45.4 ± 4.2% under setting [2] and 77.3 ± 4% under setting [4].

As to `Cc1c(N)c(=O)n(-c2ccccc2)n1C` [4-Aminoantipyrine], the chemical recovery by setting is: under setting [1], 6.85 ± 1.7%; under setting [2], 8.59 ± 2.6%; under setting [4], 67.1 ± 4.8%.

Molecule `Nc1ccc(Nc2ccccc2)cc1` [4-Aminodiphenylamine] had a chemical recovery under setting [1] of 1.74 ± 1.1% and a chemical recovery under setting [2] of 1.91 ± 0.31%.

For `COc1cc(Cl)c(OC)cc1N` [4-Chloro-2,5-dimethoxyaniline], the chemical recovery worked out at 11 ± 2.9% under setting [1], 26.5 ± 3.5% under setting [2] and 55 ± 2.7% under setting [4].

`CC(C)(c1ccccc1)c1ccc(O)cc1` [4-Cumylphenol]: the chemical recovery under setting [2] is 30.6 ± 7.2% and the chemical recovery under setting [4] stood at 46.6 ± 4.5%.

As for `Cc1c(C=O)c(=O)n(-c2ccccc2)n1C` [4-Formyl-antipyrine], the chemical recovery was 41.3 ± 3.5% under setting [1], 34.4 ± 4.1% under setting [2] and 69.5 ± 2.1% under setting [4].

Turning to `Oc1c(Cl)cc(-c2ccc(Cl)cc2)cc1Cl` [4-Hydroxy-3,4',5-trichlorobiphenyl], the chemical recovery is 46.3 ± 7.3% under setting [1], 36.1 ± 5.9% under setting [2] and 27.9 ± 1.8% under setting [4].

Regarding `O=C(c1ccccc1)c1ccc(O)cc1` [4-Hydroxybenzophenone], the chemical recovery reads like this: under setting [1], 65.9 ± 5.4%; under setting [2], 53 ± 4.1%; under setting [4], 77.7 ± 3.6%.

`Oc1cccc2n[nH]nc12` [4-Hydroxybenzotriazole]: the chemical recovery is, setting by setting: under setting [2], 32.8 ± 2.4%; under setting [3], 48 ± 8.1%; under setting [4], 3.14 ± 2.8%.

`Oc1ccnc2ccccc12` [4-Hydroxyquinoline] gave a chemical recovery under setting [2] of 44.7 ± 1.7%.

In the case of `CC(C)c1ccc(N)cc1` [4-Isopropylaniline], the chemical recovery reads like this: under setting [1], 6.67 ± 1.6%; under setting [2], 15.1 ± 2.4%; under setting [3], 18.2 ± 5.3%; under setting [4], 23.6 ± 3.4%.

Turning to `COc1cc([N+](=O)[O-])ccc1O` [4-Nitroguaiacol], the chemical recovery under setting [1] was 45.3 ± 6.9%, the chemical recovery under setting [2] amounted to 39.5 ± 6.2% and the chemical recovery under setting [4] turned out to be 82.7 ± 14%.

`CC(C)(C)CC(C)(C)c1ccc(O)cc1` [4-Tert-Octylphenol] yielded a chemical recovery under setting [2] of 25.4 ± 2%.

Regarding `CC1(C)C(=O)NC(=O)NC1=O` [5,5-Dimethylbarbituric-acid], the chemical recovery was 5.81 ± 5% under setting [1], 8.69 ± 8.3% under setting [2] and 39.8 ± 10% under setting [4].

Under setting [2], `Oc1c(Cl)cc(Cl)c2cccnc12` [5,7-Dichloro-8-hydroxyquinoline] had a chemical recovery of 21.3 ± 1.8%.
